Laboratory results as given in the NIST ThermoML archive (doi:10.1016/j.tca.2012.04.033).

Tests used:
[1] = Crystal; DTA
[2] = xn = mol fraction of the nth substance listed; details: 101 kPa, Liquid, Vibrating tube method
[3] = refractive index (Na D-line) (dimensionless); xn = mol fraction of the nth substance listed; details: 101 kPa, Liquid, Standard Abbe refractometry

C[Si](O[Si](C)(c1ccccc1)c1ccccc1)(c1ccccc1)c1ccccc1 [1,3-dimethyl-1,1,3,3-tetraphenyldisiloxane]
Details	Normal melting temperature [°C]
[1]	49.70

C[Si](O[Si](C)(c1ccccc1)c1ccccc1)(c1ccccc1)c1ccccc1 [1,3-dimethyl-1,1,3,3-tetraphenyldisiloxane] + CC(C)O
303.15 K
Details	mass density, x1 = 0.00125 [kg/m3]	mass density, x1 = 0.00359 [kg/m3]	mass density, x1 = 0.00759 [kg/m3]	mass density, x1 = 0.01218 [kg/m3]	mass density, x1 = 0.01284 [kg/m3]	refractive index, x1 = 0.00125	refractive index, x1 = 0.00359	refractive index, x1 = 0.00759	refractive index, x1 = 0.01218	refractive index, x1 = 0.01284
[2]	778.65	783.03	788.42	794.61	795.14	–	–	–	–	–
[3]	–	–	–	–	–	1.37416	1.37721	1.38094	1.38528	1.38568

C[Si](O[Si](C)(c1ccccc1)c1ccccc1)(c1ccccc1)c1ccccc1 [1,3-dimethyl-1,1,3,3-tetraphenyldisiloxane] + CCCO
303.15 K
Details	mass density, x1 = 0.00161 [kg/m3]	mass density, x1 = 0.00428 [kg/m3]	mass density, x1 = 0.00956 [kg/m3]	mass density, x1 = 0.01076 [kg/m3]	mass density, x1 = 0.01339 [kg/m3]	refractive index, x1 = 0.00161	refractive index, x1 = 0.00428	refractive index, x1 = 0.00956	refractive index, x1 = 0.01076	refractive index, x1 = 0.01339
[2]	797.94	801.12	808.9	810.51	813.97	–	–	–	–	–
[3]	–	–	–	–	–	1.38273	1.38545	1.39061	1.39176	1.39425

C[Si](O[Si](C)(c1ccccc1)c1ccccc1)(c1ccccc1)c1ccccc1 [1,3-dimethyl-1,1,3,3-tetraphenyldisiloxane] + CCO
298.15 K
Details	mass density, [2] [kg/m3]	refractive index, [3]
x1 = 0.0009	787.37	1.36085
x1 = 0.00225	789.76	1.36263
x1 = 0.00446	794.07	1.36586
x1 = 0.00667	798.07	1.36893
x1 = 0.00825	801.34	1.37139
x1 = 0.01059	805.13	1.37427
x1 = 0.01252	808.66	1.37693

C[Si](O[Si](C)(c1ccccc1)c1ccccc1)(c1ccccc1)c1ccccc1 [1,3-dimethyl-1,1,3,3-tetraphenyldisiloxane] + CO
298.15 K
Details	mass density, x1 = 0.00036 [kg/m3]	mass density, x1 = 0.0009 [kg/m3]	mass density, x1 = 0.0018 [kg/m3]	mass density, x1 = 0.00241 [kg/m3]	mass density, x1 = 0.00364 [kg/m3]	refractive index, x1 = 0.00036	refractive index, x1 = 0.0009	refractive index, x1 = 0.0018	refractive index, x1 = 0.00241	refractive index, x1 = 0.00364
[2]	787.68	789.17	791.71	793.31	796.57	–	–	–	–	–
[3]	–	–	–	–	–	1.3274	1.3287	1.33084	1.33228	1.33509

C[Si](O[Si](C)(c1ccccc1)c1ccccc1)(c1ccccc1)c1ccccc1 [1,3-dimethyl-1,1,3,3-tetraphenyldisiloxane] + C[Si]1(C)O[Si](C)(C)O[Si](C)(C)O[Si](C)(C)O1
303.15 K
Details	mass density, x1 = 0.00724 [kg/m3]	mass density, x1 = 0.01526 [kg/m3]	mass density, x1 = 0.02752 [kg/m3]	mass density, x1 = 0.04184 [kg/m3]	mass density, x1 = 0.05492 [kg/m3]	refractive index, x1 = 0.00724	refractive index, x1 = 0.01526	refractive index, x1 = 0.02752	refractive index, x1 = 0.04184	refractive index, x1 = 0.05492
[2]	946.03	947.52	949.77	952.36	954.7	–	–	–	–	–
[3]	–	–	–	–	–	1.39358	1.39553	1.3985	1.40193	1.40505
